In patent US20200347033A1, “MODULATORS OF THE INTEGRATED STRESS PATHWAY” (Calico Life Sciences LLC, priority 2017, published 2020):

Test system: HEK293T cells carrying the ATF4 luciferase reporter
Test: ATF4-Luc assay (in vitro model of vanishing white matter disease)
Format: cell-based, human
Settings: Homo sapiens, HEK-293T; HEK293T cells with ATF4 5'-UTR firefly luciferase reporter; 1 μg/mL tunicamycin; 7 hours; One Glo luminescence
Protocol: In order to test exemplary compounds of the invention in a cellular context, a stable VWMD cell line was first constructed. The ATF4 reporter was prepared by fusing the human full-length ATF4 5′-UTR (NCBI Accession No. BC022088.2) in front of the firefly luciferase (FLuc) coding sequence lacking the initiator methionine as described in Sidrauski et al (eLife 2013). The construct was used to produce recombinant retroviruses using standard methods and the resulting viral supernatant was used to transduce HEK293T cells, which were then subsequently selected with puromycin to generate a stable cell line.
HEK293T cells carrying the ATF4 luciferase reporter were plated on polylysine coated 384-well plates (Greiner Bio-one) at 30,000 cells per well. Cells were treated the next day with 1 μg/mL tunicamycin and 200 nM of a compound of Formula (I) for 7 hours. Luminescence was measured using One Glo (Promega) as specified by the manufacturer. Cells were maintained in DMEM with L-glutamine supplemented with 10% heat-inactivated FBS (Gibco) and Antibiotic-Antimycotic solution (Gibco).
Table 2 below summarizes the EC50 data obtained using the ATF4-Luc assay for exemplary compounds of the invention.

With `O=C(N[C@H]1CC[C@H](N2CCN(c3ccc(C(F)F)cn3)C2=O)CC1)c1ccc(Cl)c(F)c1` [Compound 123, 4-chloro-N-[(1r,4r)-4-{3-[5-(difluoromethyl)pyridin-2-yl]-2-oxoimidazolidin-1-yl}cyclohexyl]-3-fluorobenzamide] the EC50 was greater than 2 µM.

In the case of `O=C(N[C@H]1CC[C@H](N2CCN(c3ccc(C(F)F)cn3)C2=O)CC1)c1ccc(OC(F)(F)F)cn1` [Compound 124, N-[(1r,4r)-4-{3-[5-(difluoromethyl)pyridin-2-yl]-2-oxoimidazolidin-1-yl}cyclohexyl]-5-(trifluoromethoxy)pyridine-2-carboxamide], the EC50 is reported as greater than 2 µM.

`O=C(COc1ccc(C(F)(F)F)nc1)N[C@H]1CC[C@H](N2CCN(c3ccc(C(F)F)cn3)C2=O)CC1` [Compound 125, N-[(1r,4r)-4-{3-[5-(difluoromethyl)pyridin-2-yl]-2-oxoimidazolidin-1-yl}cyclohexyl]-2-{[6-(trifluoromethyl)pyridin-3-yl]oxy}acetamide] gave an EC50 of 0.05 to 0.25 µM.

With `O=C(COc1ccc(F)c(F)c1)N[C@H]1CC[C@H](N2CCN(c3ccc(C(F)F)cn3)C2=O)CC1` [Compound 126, N-[(1r,4r)-4-{3-[5-(difluoromethyl)pyridin-2-yl]-2-oxoimidazolidin-1-yl}cyclohexyl]-2-(3,4-difluorophenoxy)acetamide] the EC50 was less than 0.05 µM.

`O=C(COc1ccc(OC(F)(F)F)cc1)N[C@H]1CC[C@H](N2CCN(c3ccc(C(F)F)cn3)C2=O)CC1` [Compound 127, N-[(1r,4r)-4-{3-[5-(difluoromethyl)pyridin-2-yl]-2-oxoimidazolidin-1-yl}cyclohexyl]-2-[4-(trifluoromethoxy)phenoxy]acetamide] gave an EC50 of 0.25 to 1 µM.

Compound `O=C(COc1ccc2c(c1)OC(F)(F)O2)N[C@H]1CC[C@H](N2CCN(c3ccc(C(F)F)cn3)C2=O)CC1` [Compound 128, 2-[(2,2-difluoro-2H-1,3-benzodioxol-5-yl)oxy]-N-[(1r,4r)-4-{3-[5-(difluoromethyl)pyridin-2-yl]-2-oxoimidazolidin-1-yl}cyclohexyl]acetamide] has an EC50 of 0.05 to 0.25 µM.

For `O=C(N[C@H]1CC[C@H](N2CCN(c3ccc(C(F)F)cn3)C2=O)CC1)OCc1ccccc1` [Compound 129, benzyl [(1r,4r)-4-{3-[5-(difluoromethyl)pyridin-2-yl]-2-oxoimidazolidin-1-yl}cyclohexyl]carbamate], the EC50 was greater than 2 µM.

Compound `O=C(COc1ccc(Cl)c(F)c1)N[C@H]1CC[C@H](N2CCN(c3ccccn3)C2=O)CC1` [Compound 130, 2-(4-chloro-3-fluorophenoxy)-N-{(1r,4r)-4-[2-oxo-3-(pyridin-2-yl)imidazolidin-1-yl]cyclohexyl}acetamide] has an EC50 of less than 0.05 µM.

`Cc1csc(N2CCN([C@H]3CC[C@H](NC(=O)COc4ccc(Cl)c(F)c4)CC3)C2=O)n1` [Compound 131, 2-(4-chloro-3-fluorophenoxy)-N-{(1r,4r)-4-[3-(4-methyl-1,3-thiazol-2-yl)-2-oxoimidazolidin-1-yl]cyclohexyl}acetamide] showed an EC50 of 0.25 to 1 µM.

Work on `O=C(COc1ccc(Cl)c(F)c1)N[C@H]1CC[C@H](N2CCN(c3ccc(C(F)F)cn3)C2=O)CC1` [Compound 133, 2-(4-chloro-3-fluorophenoxy)-N-[(1r,4r)-4-{3-[5-(difluoromethyl)pyridin-2-yl]-2-oxoimidazolidin-1-yl}cyclohexyl]acetamide] yielded an EC50 of less than 0.05 µM.

`O=C(COc1ccc(Cl)c(F)c1)N[C@H]1CC[C@H](N2CCN(c3ccc4c(c3)OC(F)(F)O4)C2=O)CC1` [Compound 134, 2-(4-chloro-3-fluorophenoxy)-N-{(1r,4r)-4-[3-(2,2-difluoro-2H-1,3-benzodioxol-5-yl)-2-oxoimidazolidin-1-yl]cyclohexyl}acetamide] showed an EC50 of less than 0.05 µM.

For `O=C(COc1ccc(Cl)c(F)c1)N[C@H]1CC[C@H](N2CCN(c3ccc(Cl)cn3)C2=O)CC1` [Compound 135, 2-(4-chloro-3-fluorophenoxy)-N-{(1r,4r)-4-[3-(5-chloropyridin-2-yl)-2-oxoimidazolidin-1-yl]cyclohexyl}acetamide], the EC50 was less than 0.05 µM.
